Assay: gradient 5% acetonitrile 3 min, to 50% in 2 min, to 85% in 15 min, held 3 min, 100 µL/min
Settings: column: Zorbax Extend-C18 2.1 x 50 mm; eluents: water / acetonitrile, 0.1% formic acid
Procedure, shortened: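 Data were gathered over 3 months by HPLC coupled to a quadrupole time-of-flight mass spectrometer, operated in positive and negative ionization mode. Mixtures of ~100 pure standards ran on a Zorbax Extend-C18 column (2.1 × 50 mm, 1.8 μm) at 100 μL/min, with water and acetonitrile each containing 0.1% formic acid and dead and dwell volumes of 40 μL and 900 μL. Retention time was read from adduct peaks picked by computer and checked manually.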

RP-LC retention time [s]	Compound
528	O=C(O)Cc1csc(NC(=O)C2CCC(=O)N2)n1 (stereo unspecified)
785	Cc1ccccc1S(=O)(=O)N1CCC(Cc2nc3cccnc3n2CC(C)C)C1 (stereo unspecified)
892	CCc1cccc(NC(=O)C2CCN(S(=O)(=O)c3cc(C(=O)N4CCCC4)cs3)CC2)c1
573	O=C(Cc1csc(NC(=O)c2ccsc2)n1)NCc1nc2ccccc2[nH]1
1010	O=C(Nc1ccc(F)cc1Cl)c1cc2n(n1)CCCC2
597	COC(=O)c1c(C)[nH]c(C(=O)N2CCCC(C(=O)NCc3ccc(N(C)C)cc3)C2)c1C (stereo unspecified)
560	CCn1cc(S(=O)(=O)NCCn2c(C)cnc2-c2ccccc2)cn1
825	Cc1cc(=O)n(CC(=O)N2CCc3ccccc32)c(N2CCc3ccccc3C2)n1
655	Cn1ncc2c3ccccc3n(CCCC(=O)NC3CCN(Cc4ccccc4)CC3)c2c1=O
934	CCOC(=O)c1nc(Nc2ccc(C)c(C)c2)c2ccccc2n1
850	O=C(N[C@H]1C[C@@H]2C[C@H]1N(C(=O)c1ccc(Cl)s1)C2)c1cccs1
975	CCn1c(=O)sc2cc(S(=O)(=O)N3CCC(C(=O)Nc4cccc(SC)c4)CC3)ccc21
812	COc1cc(N2C=C(C(=O)N3CCCCC3)S(=O)(=O)c3ccccc32)cc(OC)c1OC
1020	CCc1cccc(C)c1NC(=O)C1CCCN(S(=O)(=O)c2ccc(OC)c(Cl)c2)C1 (stereo unspecified)
719	COc1ccc(CNC(=O)CN2C(=O)NC3(CCCCC3)C2=O)cc1
752	Cc1ccccc1C(=O)N1CCN(CC(F)(F)F)CC1
1100	CCn1c(=O)c2ccccc2n(Cc2nc(-c3ccc(C)c(C)c3)no2)c1=O
1120	CCn1cc(-c2nc(C)c(C(=O)Nc3ccccc3OC)s2)c2cccnc21
924	CS(=O)(=O)N1CCC(C(=O)Nc2ccc(Cl)cc2)Oc2ccccc21 (stereo unspecified)
808	Cc1ccc(C(=O)N2CCN(c3cc(-c4cccs4)[nH]n3)CC2)cc1C
580	Cn1ncc(N2CCCC(C(=O)O)C2)cc1=O (stereo unspecified)
594	Cc1nn(C)c(C)c1CNC(=O)C1CC(=O)N(c2n[nH]c3cccc(F)c23)C1 (stereo unspecified)
932	COc1ccccc1CNC(=O)Cn1c(=O)cc(-c2nc(C3CC3)no2)c2ccccc21
841	Cc1ccc(C)c(C(=O)NC(c2ccccc2)c2nnc(N3CCCC3)o2)c1 (stereo unspecified)
952	COc1ccc(-c2noc(C3CCCN3C(=O)c3ccccc3F)n2)cc1 (stereo unspecified)
826	Cc1noc(-c2ccc(OC3CN(C(=O)Cc4ccsc4)C3)cc2)n1
812	O=C(CCCN1C(=O)c2cccc3cccc(c23)C1=O)NC1CCCCC1

RP-LC retention time [s]	Compound
835	O=C1NC(=S)S/C1=C\c1ccccc1C(=O)O
583	CCc1nc2cccnc2n1CCN1CCN(C(=O)Nc2ccccc2Cl)CC1
1120	O=C(Nc1ccccc1Cl)N(CCc1cccs1)C1CC1
1070	Nc1c(C(=O)NCC2CCCO2)c2nc3ccccc3nc2n1C1CCCC1 (stereo unspecified)
922	O=C(Cn1cnc2c(-c3ccc(Cl)cc3)csc2c1=O)N1CCCCC1
918	COc1ccc(NC(=O)Cn2nc3cc(-c4ccccc4)nc(C)n3c2=O)c(OC)c1
997	CCc1cc(C(=O)Nc2ccc(F)cc2)nc2ccnn12
770	CC(=O)N1CCc2sc(C(=O)NCc3ccccc3Br)cc2C1
676	O=C(c1cn(-c2cc(Nc3ccccc3)ncn2)cn1)N1CCOCC1
732	CNC(=O)[C@@H]1C[C@H](Oc2ccccc2)CN1C(=O)Cn1c(=O)oc2ccccc21
652	COCCNC(=O)Cn1c(=O)n(-c2ccc(F)cc2)c2ncccc21
924	Cc1cccc(NS(=O)(=O)c2ccc(-c3nnc(C4CCC4)o3)o2)c1
854	Cc1cccc(NC(=O)N2CCc3c(c(-c4nc(C5CC5)no4)nn3C)C2)c1
737	COc1ccccc1CNC(=O)C1CCCN(c2nn3c(=O)c4c(nc3s2)CCCC4)C1 (stereo unspecified)
798	[O-]/[N+](=C\c1ccccc1)CC1(O)CCCCC1
775	Cc1cccc(N2CCN(C(=O)C3CCCN(c4cnc5nccnc5c4)C3)CC2)c1 (stereo unspecified)
604	COC(=O)C1=C(CN2CCN(C)CC2)NC(=O)NC1c1ccc(Cl)cc1 (stereo unspecified)
775	Cc1cccc(-n2ncc(C(N)=O)c2-n2cccc2)c1
814	O=C(c1cccc(Br)c1)N1CCC(n2c(-c3ccco3)nc3cccnc32)C1 (stereo unspecified)
634	CN(C)C(=O)c1n[nH]c2c1CN(C(=O)c1ccc(F)c(F)c1)CC2
1070	CCn1c(=O)c(C)nc2cc(-c3noc(Cc4ccccc4Br)n3)ccc21
605	CN1C[C@@H]2C(=O)N(CCc3ccccc3)C(=O)[C@@H]2C1
659	CC(C)CNC(=O)C1CCCN(c2ccnc(-c3ccc(F)cc3)n2)C1 (stereo unspecified)
848	O=C(NCCc1cccs1)C1CCCN(C(=O)c2cccn2-c2cccnc2)C1 (stereo unspecified)
756	Cc1csc(-c2ccc(N3CCN(C(=O)c4cccc5[nH]ccc45)CC3)nc2)n1
622	O=C(Cn1cnc2ccccc2c1=O)NCCn1nc(-c2cccs2)ccc1=O

The remaining lines, values behind:

Compound	RP-LC retention time [s]
CCCN1C(=O)c2c(C(=O)NCc3cccc(Cl)c3)ncn2CC1(C)C(=O)NC1CCCC1 (stereo unspecified)	858
CCc1c(C)nc2ncnn2c1N1CCOCC1	653
Cc1nnc(-c2ccc(Cl)cc2)nc1N1CCC(C)CC1	897
COc1ccccc1N1CCNCC1	627
COc1ccc(NC(=O)c2cnc3c(c2)c(=O)n(C)c(=O)n3-c2ccc(C)cc2)cc1OC	836
Cc1cccc(-c2nc(Cn3nnc(-c4nc(-c5ccc(F)cc5)no4)c3C)c(C)o2)c1	1300
COc1ccc(-c2csc(Nc3ccc(Br)cn3)n2)cc1OC	1100
CN(Cc1ccco1)C(=O)c1ccc(-n2cc(CNC(=O)C3CC3)cn2)cc1	676
Cn1nc(C2CCCN(C(=O)Nc3ccc4c(c3)OCCO4)C2)n(C2CCCC2)c1=O (stereo unspecified)	718
CCOc1ccc(NC(=O)C2CCN(S(=O)(=O)c3cc(-c4noc(C)n4)cs3)CC2)cc1	917
O=C(C1CCN(c2nnc(-n3cccc3)s2)CC1)N1CCN(c2ncccn2)CC1	738
Cn1cc2nc(SCC(=O)Nc3ccc(Cl)cc3F)n(CC3CC3)c(=O)c2n1	954
Cc1ccccc1OCc1nc(-c2cccc(-c3ccn[nH]3)c2)no1	1020
CCOc1ccc(NC(=O)Cn2c(=O)n(-c3cccc(C)c3)c(=O)c3c2cc(C)n3C)cc1	864
COc1ccc(NC(=O)COc2ccc(-c3nnc4n3CCCC4)cc2)c(OC)c1	684
Cc1cc(F)ccc1NC(=O)Cn1c(C)cc(-c2nnc(C3CCC3)o2)c1C	934
CC1=C(c2ccc(C)cc2)S(=O)(=O)N=C1N1CCC(NC(=O)c2cc(C)n(C)n2)CC1	769
COc1ccc(CN2C=C(C(=O)OCc3noc(C)n3)C(C)=NS2(=O)=O)cc1	873
COc1ccc(Cl)cc1NC(=O)CSc1ccc(-c2ccco2)nn1	944

Compound	RP-LC retention time [s]
O=C(COc1ccc(F)cc1)Nc1ccc(-c2nc(-c3ccc(Cl)cc3)no2)cc1	1340
O=C(NCC1CC1)c1ccc(NC(=O)C2CCC2)cc1N1CCOCC1	709
Cc1cc(=O)n2nc(-c3ccc(Cl)cc3)nc2n1CC(=O)NC(C)C	744
Fc1cccc(-c2cc(CN3CCN(c4ncccn4)CC3)[nH]n2)c1	618
Cc1cc(C(F)(F)F)nn1CC(=O)N1CCc2nn(C)c(=O)n2CC1	659
O=C(Cn1nc2c(N3CCCCCC3)nccn2c1=O)Nc1ccc2c(c1)OCO2	667
CCOC(=O)c1[nH]c(C)c(C(=O)NCCN(C)C)c1C	571
COC(=O)c1[nH]c2c(c1C)C(=O)CC(c1cc(OC)c(OC)c(OC)c1)C2 (stereo unspecified)	781
CC1CCCN(CC2CCN(S(=O)(=O)c3ccc(C#N)cc3)CC2)C1 (stereo unspecified)	644
O=C(NC1CCCCCC1)C1CCCN(C(=O)c2ccc(F)c(F)c2)C1 (stereo unspecified)	856
CC(C)N1CCN(Cc2nc(-c3ccc(N4CCOCC4)nc3)no2)CC1	574
CCCNC(=O)N(C1CCOCC1)C1CCN(C(=O)Nc2cccc(C)c2C)CC1	732
CCC(C)(C)C(=O)NC1CCN(c2cnn(CC3CC3)c(=O)c2)CC1	664
COc1ccc2c(c1)-c1nc(NC(=O)c3ccc(C)cc3)sc1CC2	1170
O=C(C1CCN(c2cncnc2N2CCOCC2)CC1)N1CCOCC1	556
Cc1nn(-c2ccc(F)cc2)c(C)c1S(=O)(=O)N1CCC(C(=O)NC(C)(C)C)CC1	888
O=C(NC1CC1)c1ccc(OCC2CCN(C(=O)c3ccc(Br)o3)CC2)cc1	830
CCCN(Cc1ccc(Cl)cc1)Cc1cc(=O)n2cc(C)ccc2n1	674
CC(C)c1cc(C(C)C)n2nc(N)nc2n1	734
